Reference: patent US20070086967A1, “Treatment of psoriasis with rosiglitazone” (priority 2003, published 2007)

How the values were obtained:
Type in all cases: in vivo, humans
[1] = system: moderate to severe plaque psoriasis; test: Phase II placebo-controlled clinical study, Lattice System Global Psoriasis Score (LS-GPS); settings: for Improvement by 2 categories, number of patients / Improvement by 2 categories, percentage of patients / Improvement to clear/almost clear, number of patients / Improvement to clear/almost clear, percentage of patients / Improvement to clear/almost clear/mild, number of patients / Improvement to clear/almost clear/mild, percentage of patients: LS-GPS, 18 weeks
Source text: The Lattice System Global Psoriasis Score (LS-GPS) developed by Charles Ellis, M. D. is a physician's global assessment tool that provides an entire body assessment that combines total body surface area (BSA) involvement with average plaque qualities. The resulting LS-GPS is one of eight discrete values ranging from “Clear” to “Very Severe”.
According to the LS-GPS score the definitions are: Clear • 0% Body Surface Area (BSA) and no elevation, erythema or scale. Almost Clear: • 1-3% BSA, mild elevation, erythema or scale; or • 4-9% BSA, mild erythema or mild scale Mild: • 1-3% BSA, moderate or marked elevation, erythema or scale; or • 4-9% BSA, mild elevation or moderate erythema or moderate scale; or • 10-20% BSA, mild erythema or mild/moderate scale Mild to Moderate: • 4-9% BSA, moderate elevation or marked scale; or • 10-20% BSA, moderate erythema; or • 21-29% BSA, mild erythema or mild/moderate scale Moderate: • 4-9% BSA, marked elevation or marked erythema; or • 10-20% BSA, mild elevation; or • 30-50% BSA, mild erythema or mild scale Moderate to Severe: • 10-20% BSA, moderate elevation or marked scale; or • 21-29% mild elevation or moderate erythema; or • 51+% BSA, mild erythema or mild scale Severe: • 10-20% BSA, marked elevation or marked erythema; or • 21-29% BSA, moderate/marked elevation or marked erythema or marked scale; or • 30-50% BSA, mild elevation or moderate erythema or moderate scale Very Severe: • 30-50% BSA, moderate/marked elevation or marked erythema or marked scale; or • 51+% BSA, any elevation or moderate/marked erythema or moderate/marked scale.
(§1) A phase II, multi-center, randomized, double-blind, placebo-controlled study involving 186 subjects compared the safety and efficacy of three doses (2 mg, 4 mg, and 8 mg) of rosiglitazone maleate (RSG) to placebo for eighteen weeks with two weeks follow-up in the treatment of moderate to severe plaque psoriasis. This study was designed to provide an assessment of the risk to benefit profile of three dose levels of RSG in subjects with psoriasis. 186 patients were enrolled and 108 patients completed the study. All patients were in the moderate to very severe category, although of the patients starting the study only 11 were moderate and the rest were severe or very severe.
(§2) Efficacy measurements included the Lattice System Global Psoriasis Score (LS-GPS) and the Psoriasis Area and Severity Index (PASI).
“Observed” refers to data on patients who completed the trial. “LOCF” (last observation carried forward) includes data on patients who withdrew from the trial for some reason and includes their last observation in the data. The percentage is out of the total number of initial participants in the trial.

[2] = system: moderate to severe plaque psoriasis; test: Phase II placebo-controlled clinical study, Psoriasis Area and Severity Index (PASI)
Procedure: The Psoriasis Area Severity Index (PASI) score was developed by Fredeniksson and Petersson in 1978 ( Frederiksson T and Petersson U. Severe psoriasis-oral therapy with a new retinoid. Dermatologica. 1978;157:238-44). According to our preferred method of determining the PASI score,four main body areas are assessed: the head (h), the upper extremities (u) the trunk (t), and lower extremities (l) corresponding to 10; 20, 30 and 40% of the total body surface area, respectively. The buttocks are counted as part of the legs, the axilla and groin count as part of the trunk and the neck as part of the head. The area of psoriatic involvement of these four main areas (Ah, At, Au, Al) is given a numeric score for the percent involved by psoriasis: 1=1-9%; 2=10-29%; 3=30-49%; 4=50-69%; 5=70-89% and 6=90-100%. In order to evaluate the severity of the psoriatic lesions three target symptoms, erythema (E), thickness/indurabon (I), and desquamation/scaling (D) will be assessed according to a scale of 0-4, where 4 represents the severest possible involvement. In the case of i.e., erythema, 0=No symptoms; 1=slight erythema, 2=moderate erythema; 3=marked erythema, and 4=very marked erythema. The PASI score (0-72) is then calculated, from the following formula: […]
The PASI score varies in steps of 0.1 units from 0.0 to 72.0. Higher PASI scores indicate higher degrees of severity. The last mentioned score represents complete erythema of the severest possible degree, while 0.0 means no psoriatic lesions at all. Generally severe psoriasis is defined by a PASI score of 20 or more.
as §1, §2

subjects with psoriasis = test: Phase II placebo-controlled clinical study, safety
Procedure: as §1

[3] = system: moderate to severe plaque psoriasis; test: Phase II placebo-controlled clinical study, overall efficacy, onset of effect and patient photographs
Procedure: FIGS. 3, 4, 5 and 6: photographs of the back of a patient receiving 2 mg rosiglitazone at baseline and after 12 weeks, 18 weeks and follow-up (week 20).
FIGS. 7, 8 and 9: photographs of the lower leg of a patient receiving 8 mg rosiglitazone at baseline and after 12 weeks and 18 weeks.
as §1, §2

[4] = Observed (completers), 2 mg oral daily
[5] = Observed (completers), 4 mg oral daily
[6] = Observed (completers), 8 mg oral daily
[7] = Week 12, 2 mg and 8 mg groups compared to placebo
[8] = 18 weeks of oral, daily treatment, 2, 4, 8 mg

In the case of CN(CCOc1ccc(CC2SC(=O)NC2=O)cc1)c1ccccn1 (stereo not drawn) [RSG, 5-[4-[2-(N-methyl-N-(2-pyridyl)amino)ethoxy]benzyl]thiazolidine-2,4-dione], the “LS-GPS results (FIG. 1, percentage of completed patients clear, almost clear or mild)” value ([1]; 8 mg group at 18 weeks) was “particularly good”, the “Improvement by 2 categories, number of patients” value ([1]; LOCF, 2 mg oral daily) was 12 and the “Improvement by 2 categories, percentage of patients” value ([1]; LOCF, 2 mg oral daily) was 24%. For the same compound, the “Improvement to clear/almost clear, number of patients” value ([1]; LOCF, 2 mg oral daily) was 2, the “Improvement to clear/almost clear, percentage of patients” value ([1]; LOCF, 2 mg oral daily) was 4% and the “Improvement to clear/almost clear/mild, number of patients” value ([1]; LOCF, 2 mg oral daily) was 5. The “Improvement to clear/almost clear/mild, percentage of patients” value ([1]; LOCF, 2 mg oral daily) was 10%, the “Improvement by 2 categories, number of patients” value ([1]; LOCF, 4 mg oral daily) was 6 and the “Improvement by 2 categories, percentage of patients” value ([1]; LOCF, 4 mg oral daily) was 14%. The “Improvement to clear/almost clear, number of patients” value ([1]; LOCF, 4 mg oral daily) was 1, the “Improvement to clear/almost clear, percentage of patients” value ([1]; LOCF, 4 mg oral daily) was 2% and the “Improvement to clear/almost clear/mild, number of patients” value ([1]; LOCF, 4 mg oral daily) was 4. The “Improvement to clear/almost clear/mild, percentage of patients” value ([1]; LOCF, 4 mg oral daily) was 9%, the “Improvement by 2 categories, number of patients” value ([1]; LOCF, 8 mg oral daily) was 11 and the “Improvement by 2 categories, percentage of patients” value ([1]; LOCF, 8 mg oral daily) was 25%. For the same compound, the “Improvement to clear/almost clear, number of patients” value ([1]; LOCF, 8 mg oral daily) was 3, the “Improvement to clear/almost clear, percentage of patients” value ([1]; LOCF, 8 mg oral daily) was 7% and the “Improvement to clear/almost clear/mild, number of patients” value ([1]; LOCF, 8 mg oral daily) was 11. For the same compound, the “Improvement to clear/almost clear/mild, percentage of patients” value ([1]; LOCF, 8 mg oral daily) was 25%, the “Improvement by 2 categories, number of patients” value [1, 4] was 11 and the “Improvement by 2 categories, percentage of patients” value [1, 4] was 28%. For the same compound, the “Improvement to clear/almost clear, number of patients” value [1, 4] was 2, the “Improvement to clear/almost clear, percentage of patients” value [1, 4] was 5% and the “Improvement to clear/almost clear/mild, number of patients” value [1, 4] was 5. The “Improvement to clear/almost clear/mild, percentage of patients” value [1, 4] was 13%, the “Improvement by 2 categories, number of patients” value [1, 5] was 4 and the “Improvement by 2 categories, percentage of patients” value [1, 5] was 20%. For the same compound, the “Improvement to clear/almost clear, number of patients” value [1, 5] was 1, the “Improvement to clear/almost clear, percentage of patients” value [1, 5] was 5% and the “Improvement to clear/almost clear/mild, number of patients” value [1, 5] was 2. For the same compound, the “Improvement to clear/almost clear/mild, percentage of patients” value [1, 5] was 10%, the “Improvement by 2 categories, number of patients” value [1, 6] was 10 and the “Improvement by 2 categories, percentage of patients” value [1, 6] was 37%. For the same compound, the “Improvement to clear/almost clear, number of patients” value [1, 6] was 3, the “Improvement to clear/almost clear, percentage of patients” value [1, 6] was 11% and the “Improvement to clear/almost clear/mild, number of patients” value [1, 6] was 10. The “Improvement to clear/almost clear/mild, percentage of patients” value [1, 6] was 37%, the LS-GPS summary [1, 7] was “improvements” and the “subjects who achieved Clear/Almost Clear in the LS-GPS (primary endpoint)” value ([1]; Week 12, in each of the RSG groups (2 mg, 4 mg, 8 mg), none in placebo) was “one”. The “distribution of the LS-GPS” value ([1]; Week 18, 2 mg group) was “statistically significant”, the “other LS-GPS endpoints” value ([1]; Week 18, 8 mg dose) was “comparable efficacy with the 2 mg dose” and the “odds for successful treatment (Clear/Almost Clear/Mild LS-GPS) relative to placebo group” value ([1]; Week 18, 8 mg group) was about 5 times. For the same compound, the “proportion of subjects who achieved Clear/Almost Clear/Mild, significance” value ([1]; Week 18, 8 mg group vs placebo) was “achieved statistical significance”, the “subjects who achieved an improvement of Clear/Almost Clear” value ([1]; Week 18, all RSG groups together, none on placebo) was “six” and the “PASI results (FIG. 2, change from baseline, LOCF)” value ([2]; 2 and 8 mg group at 12 weeks) was “particularly good”. For the same compound, the “mean percent change in PASI” value ([2]; Week 12, 2 mg and 8 mg group) was “statistically significant”, the “proportion of subjects who achieved a 50% improvement according the PASI” value [2, 7] was “improvements” and the “proportion of subjects who achieved a 75% improvement according the PASI” value [2, 7] was “improvements”. The “PASI mean percent change” value ([2]; Week 18, 2 mg group) was “statistically significant”, the “other PASI endpoints” value ([2]; Week 18, 8 mg dose) was “comparable efficacy with the 2 mg dose” and the “improvements in mean percent change in PASI total scores during follow-up period” value ([2]; two weeks follow-up after 18 weeks of treatment, all treatment groups) was “maintained”. For the same compound, the safety findings (subjects with psoriasis; [8]) was “no unexpected safety findings”, the safety profile (subjects with psoriasis; [8]) was “comparable across treatment groups” and the adverse events (subjects with psoriasis; all doses) was “comparable with placebo”. For the same compound, the tolerability (subjects with psoriasis; all doses) was “well tolerated”, the “efficacy results versus placebo” value ([3]; 4 mg group, high dropout rate (24/44)) was “did not separate appreciably from placebo” and the clinical effects ([3]; Week 12 and Week 18, 2 mg and 8 mg treatment groups) was “Clinically meaningful effects”. The “efficacy in photographs of a patient's back (FIGS. 3-6)” value ([3]; one patient on 2 mg, baseline, 12 weeks, 18 weeks, follow-up week 20) was “good efficacy”, the “efficacy in photographs of a patient's lower leg (FIGS. 7-9)” value ([3]; one patient on 8 mg, baseline, 12 weeks, 18 weeks) was “good efficacy” and the “onset of action according to most measures” value ([3]; oral, 2 to 8 mg/day) was “around 2 weeks”. For the same compound, the onset of activity ([3]; oral, 2 to 8 mg/day) was 6-8 weeks, the “time to noticeably beneficial effects” value ([3]; oral, 2 to 8 mg/day) was 12-18 weeks and the “time of peak effect (other endpoints)” value ([3]; study only 18 weeks, peak efficacy may not have been observed) was 18 weeks.
